The source of these data is US11149033B2, “Heteroaryl compound, enantiomer, diastereomer or pharmaceutically acceptable salt thereof, and antiviral composition containing same as active ingredient” (priority 2016, dated 2021).

One series concerns B/Florida/04/2006. The series can be described thus: Antiviral activity (drug efficacy evaluation by concentration) against B/Florida/04/2006. It counts as cell-based, B type influenza virus.
The subject of series [1] is A/California/07/2009 (H1N1). In words: Antiviral activity (drug efficacy evaluation by concentration) against A/California/07/2009 (H1N1). The series is classed as cell-based, A type influenza virus. Particulars: Influenza A virus, H1N1; read-out: EC50.
Another series has as its system A/Perth/16/2009 (H3N2). In words: Antiviral activity (drug efficacy evaluation by concentration) against A/Perth/16/2009 (H3N2). The series is classed as cell-based, A type influenza virus. The settings on record: Influenza A virus, H3N2; read-out: EC50.
[2] abbreviates: CC50, third EC50/CC50 column pair (c7), beside the EC50 of c6.

The melting point is the temperature, or range, at which the solid turns liquid. As a reminder, the EC50 is the concentration that produces a half-maximal response.

As to `Brc1ccc(Cc2nnc(/C=C/c3ccccc3)o2)cc1` [Compound 165, 2-(4-bromobenzyl)-5-styryl-1,3,4-oxadiazole], the melting point was 110.6 °C. Moreover, the EC50 in the series with B/Florida/04/2006 is 2.84 µM. Also, in the series “in vitro” (CC50, beside the EC50 of c2), the CC50 was found to be 12.6 µM. This compound also registered a CC50 in “in vitro” (CC50, beside the EC50 of c4) of 13.5 µM. The CC50 in the series “in vitro” (setting [2]) was determined as 10.1 µM. The EC50 in series [1] came out at 1.95 µM. For the same compound, the EC50 in the series with A/Perth/16/2009 (H3N2) stood at 3.76 µM.
Regarding `CC(C)c1ccccc1/C=C/c1nnc(Cc2ccc(Br)cc2F)o1` [Compound 169, 2-(4-bromo-2-fluorobenzyl)-5-(2-isopropylstyryl)-1,3,4-oxadiazole], the melting point came to 71.9 °C. Besides, a half-maximal effect with B/Florida/04/2006 (EC50) was put at 3.08 µM. Further, in the series “in vitro” (CC50, beside the EC50 of c2), the CC50 was found to be 20.3 µM. This compound had a CC50 in the series “in vitro” (CC50, beside the EC50 of c4) of more than 50 µM. In the series “in vitro” (setting [2]), this compound displayed a CC50 of 37.2 µM. Besides, the EC50 in series [1] was 2.13 µM. Further, the EC50 with A/Perth/16/2009 (H3N2) was 2.22 µM.
With `Cc1ccccc1/C=C/c1nnc(Cc2ccc(Br)cc2)o1` [Compound 170, 2-(4-bromobenzyl)-5-(2-methylstyryl)-1,3,4-oxadiazole], the melting point is 108.5 °C. Moreover, a half-maximal response in the series on B/Florida/04/2006 (EC50) required 2.05 µM. The compound further displayed a CC50 in the series “in vitro” (CC50, beside the EC50 of c2) of 8.53 µM. The CC50 in the series “in vitro” (CC50, beside the EC50 of c4) was 6.63 µM. The same compound returned a CC50 in “in vitro” (setting [2]) of 9.08 µM. Further, in series [1], the EC50 is 2 µM. Besides, in the series on A/Perth/16/2009 (H3N2), the concentration giving a half-maximal response (EC50) was found to be 2.04 µM.
Regarding `Clc1ccc(/C=C/c2nnc(Cc3ccc(Br)cc3)o2)cc1` [Compound 171, 2-(4-bromobenzyl)-5-(4-chlorostyryl)-1,3,4-oxadiazole], the melting point came out at 129 °C. This compound also showed an EC50 in the series on B/Florida/04/2006 of 4.3 µM. In “in vitro” (CC50, beside the EC50 of c2), this compound showed a CC50 of more than 50 µM. The compound further registered a CC50 in the series “in vitro” (CC50, beside the EC50 of c4) of 49.5 µM. The compound also registered a CC50 in the series “in vitro” (setting [2]) of 36.2 µM. Further, the concentration giving a half-maximal response (EC50) in series [1] turned out to be 3.74 µM. Also, the EC50 with A/Perth/16/2009 (H3N2) was 3.63 µM.
For `Brc1ccc(Cc2noc(/C=C/c3ccccc3)n2)cc1` [Compound 174, (E)-3-(4-bromobenzyl)-5-styryl-1,2,4-oxadiazole], the melting point is 86.7 °C. In the series on B/Florida/04/2006, this compound showed an EC50 of 1.45 µM. In addition, the CC50 in the series “in vitro” (CC50, beside the EC50 of c2) was 6.53 µM. In “in vitro” (CC50, beside the EC50 of c4), this compound displayed a CC50 of 5.46 µM. This compound also came in with a CC50 in “in vitro” (setting [2]) of 6.3 µM. The EC50 in series [1] amounted to 3.78 µM. The concentration giving a half-maximal response (EC50) in the series with A/Perth/16/2009 (H3N2) stood at 1.54 µM.
`Cc1ccc(F)c(Cc2nnc(/C=C/c3ccc(F)cc3Cl)o2)c1` [Compound 177, (E)-2-(2-chloro-4-fluorostyryl)-5-(2-fluoro-5-methylbenzyl)-1,3,4-oxadiazole]: the melting point worked out at 136.9 °C. The compound also displayed an EC50 in the series on B/Florida/04/2006 of 1.07 µM. The compound further yielded a CC50 in “in vitro” (CC50, beside the EC50 of c2) of more than 50 µM. Moreover, in the series “in vitro” (CC50, beside the EC50 of c4), the CC50 was more than 50 µM. For the same compound, the CC50 in “in vitro” (setting [2]) is more than 50 µM. Moreover, in series [1], the 50% effective concentration (EC50) was 0.835 µM. For the same compound, the EC50 in the series on A/Perth/16/2009 (H3N2) is 0.753 µM.
For `Fc1ccc(/C=C/c2nnc(Cc3cccc(Br)c3)o2)c(Cl)c1` [Compound 178, (E)-2-(3-bromobenzyl)-5-(2-chloro-4-fluorostyryl)-1,3,4-oxadiazole], the melting point amounted to 121.7 °C. Further, in the series on B/Florida/04/2006, the EC50 was found to be 0.95 µM. The CC50 in “in vitro” (CC50, beside the EC50 of c2) was more than 50 µM. Moreover, the CC50 in the series “in vitro” (CC50, beside the EC50 of c4) is more than 50 µM. Also, the CC50 in “in vitro” (setting [2]) is more than 50 µM. For the same compound, the EC50 in series [1] was 0.99 µM. In the series with A/Perth/16/2009 (H3N2), the EC50 turned out to be 0.75 µM.
In turn, `Fc1ccc(/C=C/c2nnc(Cc3ccc(Cl)nc3)o2)c(Cl)c1` [Compound 180, (E)-2-(2-chloro-4-fluorostyryl)-5-((6-chloropyridin-3-yl)methyl)-1,3,4-oxadiazole] displayed a melting point of 163 °C. Further, the concentration for a half-maximal effect (EC50) in the series with B/Florida/04/2006 turned out to be 0.98 µM. In “in vitro” (CC50, beside the EC50 of c2), this compound showed a CC50 of more than 50 µM. The compound further displayed a CC50 in “in vitro” (CC50, beside the EC50 of c4) of more than 50 µM. Also, the CC50 in the series “in vitro” (setting [2]) is more than 50 µM. Moreover, the half-maximal effective concentration (EC50) in series [1] amounted to 1.05 µM. Besides, in the series with A/Perth/16/2009 (H3N2), the EC50 stood at 0.51 µM.
The compound `Cc1ccc(Cc2nnc(/C=C/c3ccc(F)cc3Cl)o2)cc1Br` [Compound 181, (E)-2-(3-bromo-4-methylbenzyl)-5-(2-chloro-4-fluorostyryl)-1,3,4-oxadiazole] showed a melting point of 139 °C. Also, it took 8.29 µM to reach a half-maximal effect with B/Florida/04/2006 (EC50). In “in vitro” (CC50, beside the EC50 of c2), this compound displayed a CC50 of more than 50 µM. Also, the CC50 in the series “in vitro” (CC50, beside the EC50 of c4) was more than 50 µM. In the series “in vitro” (setting [2]), the CC50 is more than 50 µM. The half-maximal effective concentration (EC50) in series [1] was determined as 10.9 µM. Moreover, in the series on A/Perth/16/2009 (H3N2), the EC50 was determined as 5.56 µM.
